*1 amine or outer side, *2 acyl side, *3 side chain or, on linkers, in order; H or OH if unused. Where a SMILES comes first, the peptide text is derived from it. Bridges are numbered along the chain shown (N, C = ends). [ ]: non-standard residue; d: D form. X1 = CC(C)CCCCCCCCC[C@H](CC(=O)[*:1])O[*:2]
Columns and labels:
normal hepatocytes 7702 = assay: Cytotoxic activity test, Cell Counting Kit-8; type: cell-based; details: 100 ug/ml, 48 hours
Source text: (§1) Cytotoxic activity test method: measure cytotoxic activity using a Cell Counting Kit-8 (CCK-8 kit for short and of Dojindo Laboratories, Japan), namely, […]. The human CCK octapeptide ELISA is a quick high-sensitivity detection kit based on WST-8 and widely applied to cell proliferation and cytotoxic activity. WST-8 is a compound similar to the MTT. With the presence of electronic coupling reagent, WST-8 can be reduced by some dehydrogenases in mitochondria and produce orange formazan. The more and faster the cell proliferation is, the deeper the color; the greater the cytotoxicity is, the lighter the color. For the same cells, the color depth has a linear relationship with the number of cells. Solvent DMSO is used in control group, and pure lysine ester produced by strain Alcanivorax dieselolei T6-6 dissolved in DMSO are used in experimental group. Cells are hepatoma cells 7402 and normal hepatocytes 7702 (available from Sino-US Joint Venture Biohermes Biomedical Technology Ltd). Medicinal concentration is 100 ug/ml, and operation is taken according to kit instruction, with each step repeated three times. After medication, […] is detected in cellular fluid after culturing for 48 hours. Cell toxicity results are shown in Table 8: The medicine-to-cell suppression rate=[negative group (DMSO)−experimental group (dosed)]/negative group (DMSO). […] Accordingly, the active substances of lysine ester generated by the strain Alcanivorax dieselolei T6-6 have better cytotoxic activity.

hepatoma cells 7402 = assay: Cytotoxic activity test, Cell Counting Kit-8; type: cell-based; details: 100 ug/ml, 48 hours
Source text: as §1

[1] = Liquid surface tension (automatic interfacial tensiometer); type: physicochemical
Protocol: Test method of liquid surface tension: Inoculate the Alcanivorax dieselolei T6-6 single bacterium into MSM medium on clean workbench (with 2% n-hexadecane as the sole carbon source), and culture it in constant temperature air bath shaker incubator (28° C., 200 rpm/min) until thalli obviously grow (about 3 to 5 days), during which take out 10 ml fermentation liquid every 24 hours, and measure its surface tension values using automatic interfacial tensiometer (Manufacturer: Chengde Precision Testing Machine Co., Ltd; Model: JZ-200-a automatic interface tensiometer). […] (For refrigeration of supernatant and hydrophobic layer stratified after centrifugation, the surface tension should be measured when it gets to the room temperature. Thus, the result is comparability and credibility). When measuring liquid surface tension, pour 10 ml fermentation liquid of A. dieselolei T6-6 at temperature of 25° C. into a weighing cup, place the weighing cup in the center of the tray, press “▴” to make the platinum ring deep into 5 mm to 7 mm in the liquid, press “●” to stop; if the peak needs to be kept, firstly press “peak” button, and then press “▾”, the display value will increase gradually, and finally stay at the maximum; this maximum value is the actually measured value of surface tension of liquid, and then press “●” to stop, after the maximum value is recorded, press “reset” button. […]

aeromonas hydrophila = assay: Antibacterial activity, filter paper method; type: cell-based; details: bacteriostasis experiment
Source text: (§2) Antibacterial activity test method: use filter paper method to detect antibacterial activity of biosurfactant produced by fermentation of strain Alcanivorax dieselolei T6-6. The indicator bacteria are Gram-negative bacteria, Gram-positive bacteria, endophytic pathogenic fungus in tea tree and yeasts. Specific steps: coat the well-shaken indicator bacteria on the culture plate, stick filter paper on each scribe region, and drip surfactant on filter paper. The control group is the methanol solvent of same amount. After bacteria are inverted cultured in constant temperature incubation at 28° C. for a certain period (different indicator bacteria have different growth cycles; bacteria grow quickly, but endophytic fungus in tea tree should grow 3-5 days), and observe the results to detect inhibition zone. If there is an inhibition zone, its size should be measured.
(§3) DH5 alpha, aeromonas hydrophila and Campbell vibrio.

Campbell vibrio = assay: Antibacterial activity, filter paper method; type: cell-based; details: bacteriostasis experiment
Source text: as §2, §3

E. coli. DH5 alpha = assay: Antibacterial activity, filter paper method; type: cell-based; details: bacteriostasis experiment
Source text: as §2, §3

[2] = Determination of biosurfactant CMC values; type: physicochemical; details: for CMC: water solution
Source text: Determination method of biosurfactant CMC values: prepare different concentrations of water solution from pure biosurfactants to be determined, and measure its surface tension with surface tension meter. With the increase of surface activity (concentration), the surface tension of water solution gradually […]. The surface tension stops decreasing when the concentration increases to a certain level. The amount of surfactant corresponding to this critical surface tension is CMC value.

Bacillus plakortidis = assay: Antibacterial activity, filter paper method; type: cell-based; details: 28° C.
Source text: as §2

Bacillus rhizosphaerae = assay: Antibacterial activity, filter paper method; type: cell-based; details: 28° C.
Source text: as §2

Bacillus safensis = assay: Antibacterial activity, filter paper method; type: cell-based; details: 28° C.
Source text: as §2

Phomaexigua var. exigua = assay: Antibacterial activity, filter paper method; type: cell-based; details: 28° C.
Source text: as §2

Rhodotorula mucilaginosa = assay: Antibacterial activity, filter paper method; type: cell-based; details: 28° C.
Source text: as §2

[3] = test system: Lysinibacillus sphaericus; assay: Antibacterial activity, filter paper method; type: cell-based; details: 28° C.
Source text: as §2

Pestalotiopsistheae = assay: Antibacterial activity, filter paper method; type: cell-based; details: 28° C.
Source text: as §2

Bacillus thuringiensis = assay: Antibacterial activity, filter paper method; type: cell-based; details: 28° C.
Source text: as §2

[4] = test system: Ornithinibacillus bavariensis; assay: Antibacterial activity, filter paper method; type: cell-based; details: 28° C.
Source text: as §2

[5] = Determination of biosurfactant MAD (Minimum Active Dose) by oil expansion experiment; type: physicochemical
Source text: Determination method of biosurfactant MAD (Minimum Active Dose) values: prepare different concentrations of water solution from pure biosurfactants to be determined, and measure the oil expansion activity through oil expansion experiment. With the decrease of concentration, the oil expansion ability of water solution becomes weaker and weaker, and completely disappears when the concentration decreases to a certain level. The amount of surfactant at the time of oil expansion ability disappearing is the MAD value.

[6] = Oil expansion activity at different temperatures and pH values; type: physicochemical
Protocol: Determination method of biosurfactant oil expansion activity: Take a culture dish, add water, and add 0.1 ml hexadecane on the water surface to form oil film. Add the fermentation liquid from the shake flask to the center of oil film to make the central film squeezed to form a circle, the diameter of which positively correlates to the concentration and activity of the biosurfactant. Strains with cycle diameter more than 3 cm are retained for further study. Set pH value in the range of 2 to 10 to determine effect of pH on lysine ester produced by the strain Alcanivorax dieselolei T6-6. Oil expansion diameter varies from 3.6 to 3.9 for lysine ester produced by the strain Alcanivorax dieselolei T6-6 with small fluctuation. It has a good acid and base resistance, and the activity is the highest at pH=8. Considering the structure, it can be inferred that this material is alkaline. And also, when adding a few drops of ammonia expansion on the running TLC plate, the substance will expand more fully, which also proves that it is alkaline.
Treat the pure lysine ester produced by strain Alcanivorax dieselolei T6-6 at temperatures of 20° C., 40° C., 60° C., 80° C. and 100° C. for one hour, and then determine its activity. […] Good thermal stability makes it possible for the substance to be used in high temperature fields.

[7] = Biosurfactant emulsifying property (emulsion stable value); type: physicochemical
Protocol: In order to understand the emulsifying activity of lysine ester produced by strain Alcanivorax dieselolei T6-6, we determined the emulsifying stability value of lysine ester produced by strain Alcanivorax dieselolei T6-6 and the chemical surfactants Tween 20 and Triton X-100 against olive oil, n-hexane, dimethylbenzene, hexadecane and petroleum ether. Determination method of biosurfactant emulsifying property: add 5 ml commercially available diesel No. 0 and 5 ml surfactant solution (1%) into a test tube, treat it with ultrasonic generator at 800 W for 40 s, and measure the emulsion and oil phase at different times (0 to 24 hours). Emulsion stable value (Es %)=emulsified layer height (cm)/oil phase height (cm)×100. […] Lysine ester produced by strains Alcanivorax dieselolei T6-6 has a good emulsifying activity (83±1%) on olive oil, and can maintain […] at room temperature. Its emulsifying activity on four other organics is also more than 75%. Good emulsifying activity makes it greatly valuable in environmental pollution control.

In the case of CCCCCCCCCCCCCC1CC(=O)N1CCCCC(N)C(=O)O (centres unmarked) [2-amino-6-(2-oxo-4-tridecyl-azetidine-1-yl) hexanoic acid], the medicine-to-cell suppression rate (normal hepatocytes 7702) is reported as 67.32%, the “cell culture fluid OD600” value (normal hepatocytes 7702; DMSO control 0.863) is reported as 0.282 and the medicine-to-cell suppression rate (hepatoma cells 7402) is reported as 92.74%. The “cell culture fluid OD600” value (hepatoma cells 7402; DMSO control 1.667) was 0.121, the “surface tension of water after adding component” value ([1]; 300 ul unconcentrated surfactant added to 20 ml DDW, water alone 78.6) was 32.3 and the “surface tension reduced to” value ([1]; summary statement) was 26-28 mN m-1. The suppression effect (aeromonas hydrophila) was “no suppression effect”, the suppression effect (Campbell vibrio) was “no suppression effect” and the suppression effect (E. coli. DH5 alpha) was “no suppression effect”. For the same compound, the CMC value ([2]; summary statement) was 32 mg 1-1, the CMC [2] was 32 mg/L and the Inhibition zone (Bacillus plakortidis) was 13.7 mm. For the same compound, the Inhibition zone (Bacillus rhizosphaerae) was 10.4 mm, the Inhibition zone (Bacillus safensis) was 10.9 mm and the Inhibition zone (Phomaexigua var. exigua) was 16.3 mm. The Inhibition zone (Rhodotorula mucilaginosa) was 12.1 mm, the Inhibition zone [3] was 11.7 mm and the Inhibition zone (Pestalotiopsistheae) was 10.19 mm. For the same compound, the Inhibition zone (Bacillus thuringiensis) was 7.2 mm, the Inhibition zone [4] was 14.2 mm and the MAD [5] was 0.105 ± 0.05 µg. The “pH of highest activity” value ([6]; oil expansion experiment, pH 2 to 10) was 8, the oil expansion diameter ([6]; treated at 121° C. for 15 minutes) was “about 3.5 cm” and the “emulsifying activity compared with Tween 20 and Triton X-100” value ([7]; FIG. 12) was “higher emulsifying activity”. For the same compound, the “emulsifying activity (emulsion stable value)” value ([7]; four other organics (n-hexane, dimethylbenzene, hexadecane, petroleum ether)) was “more than 75%”, the “emulsifying activity (emulsion stable value)” value ([7]; olive oil) was 83±1% and the “time emulsion is maintained” value ([7]; olive oil, room temperature) was 48 h.

With CCCCCCCCCCCCOS(=O)(=O)[O-].[Na+] [SDS] the CMC [2] was 23 mg/L and the MAD [5] was 6.0 ± 0.12 µg.

In the case of CC(C)CCCCCCCCC[C@@H]1CC(=O)N[C@@H](CCC(=O)O)C(=O)N[C@@H](CC(C)C)C(=O)N[C@H](CC(C)C)C(=O)N[C@@H](C(C)C)C(=O)N[C@@H](CC(=O)O)C(=O)N[C@H](CC(C)C)C(=O)N[C@@H](CC(C)C)C(=O)O1 [Surfactin] (EL[dL]VD[dL]L; linker N-C via X1), the CMC [2] is reported as 45 mg/L.

Work on Rhamnolipid yielded a CMC [2] of 50 mg/L.

With Triton X-100 the MAD [5] was 0.3 ± 0.08 µg.

From patent US9920387B2, “Strain of marine oil-degrading bacteria, compounds obtained by fermentation and their applications” (THIRD INSTITUTE OF OCEANOGRAPHY,STATE OCEANIC ADMINISTRATION, priority 2014, dated 2018)
